The record followed here is US12691093B2 (THE TRUSTEES OF INDIANA UNIVERSITY, priority 2020, dated 2026).

The assay has as its system MC38-OVA cells. Description: CD8+ T cell cytotoxicity assay (OT-I CD8+ T cells co-cultured with MC38-OVA cells, luciferase). The class given is cell-based, mouse. Particulars: each drug 5.0 μM; in vitro luciferase assay.

Description: MC38-OVA cells expressing luciferase were co-cultured with OT-I CD8+ T cells in the presence of each drug (5.0 μM) and the T cell-mediated cytotoxicity was measured by the luciferase assay. Difference (log 2): (log 2 [relative viability] >1; P<0.05). Relative viability=(tumor cell viability of treated group)/(tumor cell viability of control group). […] Statistical analysis was conducted using 1-way ANOVA.
T cells were then centrifuged and cultured in RPMI1640 medium containing of 2 ng/ml murine IL2, 10% FBS and 1% PS.To measure the cytotoxicity of CD8+ T cells, 50,000 enriched CD8+ T cells were mixed in 96-well plates with MC38-OVA cells at ratios of 5:1, 1:1 or 1:5. […] We assessed the killing efficiency by measuring the activity of luciferase (#E1910, Dual-Luciferase® Reporter Assay System, Promega) after 6 hours of co-culture of the T-cells together with the tumor cells.
The CD8+ T cells were freshly isolated from the spleen of OT-I mouse (C57BL/6-Tg (TcraTcrb) 1100Mjb/J).

In the case of `COc1ccc(-c2coc3cc(O)cc(O)c3c2=O)cc1` [biochanin A], the “ranking in screen of antigen-specific OT-I CD8+ T-cell killing of MC38-OVA tumor cells” value is reported as “top-ranked compounds that most potently affected the T-cell activity”.

On to icariin, for which the “ranking in screen of antigen-specific OT-I CD8+ T-cell killing of MC38-OVA tumor cells” value was “top-ranked compounds that most potently affected the T-cell activity”.
